From patent publication US8716184B2, “Herbicidal composition comprising the hydrates of saflufenacil and glyphosate or glufosinate” (Bayer Cropscience AG, priority 2010, dated 2014)

Experiments:
Format in all cases: in vivo
[1] = system: Digitaria sanguinalis; test: Herbicidal action on Digitaria sanguinalis (Table 1)
Description: (§1) The herbicidal efficacy of the active compounds or active compound mixtures was scored visually by comparing the treated pots (soil) with untreated controls. The damage and development of all above-ground plant parts was recorded. Scoring was done on a percentage scale (example values: 100% action=all plants dead or not emerged; 50% action=50% of the plants and green plant parts dead or not emerged; 0% action=no discernible action=like control plot). The score figures of in any case 2 repetitions (pots) were averaged.
(§2) When applying the combinations according to the invention, herbicidal effects are frequently observed on a harmful plant species which exceed the formal total of the effects of the herbicides present when these are applied by themselves. Alternatively, it is observed in some cases that a lower application rate is required for the herbicide combination in order to achieve the same effect on a harmful plant species in comparison with the individual products. […] When the data observed already exceed the formal total of the data in the experiments with individual applications, they likewise exceed the expected value according to Colby, which is calculated using the formula below and is likewise regarded as an indication of synergism (cf. S. R. Colby; in Weeds 15 (1967) pp. 20 to 22): E=A+B−(A·B/100)

[2] = system: Bidens pinata; test: Herbicidal action on Bidens pinata (Table 3)
Description: as §1, §2

[3] = system: Cirsium Arvense; test: Herbicidal action on Cirsium arvense (Table 2a)
Description: as §1, §2

[4] = system: Abutilon teophrastis; test: Herbicidal action, dicotyledonous weeds, Abutilon teophrastis (Table 2b); conditions: applied at 2-3 leaf stage, scoring 28 days after application
Description: as §1
(§3) Seeds or rhizome pieces of monocotyledonous and dicotyledonous weeds are placed in sandy loam in pots, covered with soil and grown in the greenhouse under good growth conditions (temperature, atmospheric humidity, water supply). Three weeks after sowing, the test plants are treated in the three-leaf stage with the compositions according to the invention. The compositions according to the invention, formulated as wettable powders or emulsion concentrates, are sprayed onto the green plant parts in various dosages using an application rate of 300 to 800 L of water/ha (converted). After the test plants have remained in the greenhouse under optimum growth conditions for about 3 to 4 weeks, the effect of the preparations is scored visually in comparison with untreated controls (scoring as in Example 1). […]

[5] = system: Euphorbia heterophylla; test: Herbicidal action, dicotyledonous weeds, Euphorbia heterophylla (Table 2b); conditions: applied at 2-3 leaf stage, scoring 28 days after application
Description: as §1, §3

[6] = system: Xanthium strumarium; test: Herbicidal action, dicotyledonous weeds, Xanthium strumarium (Table 2b); conditions: applied at 2-3 leaf stage, scoring 28 days after application
Description: as §1, §3

[7] = system: Setaria faberii; test: Herbicidal action, monocotyledonous weeds, Setaria faberii (Table 2c); conditions: applied at 1-2 leaf stage, scoring 28 days after application
Description: as §1
as §3, with “Three weeks after sowing, the test plants are treated in the three-leaf stage with the compositions according to the invention.” left out, “1). The compositions according to the invention also have good herbicidal post-emergence action against a broad spectrum of economically important weed grasses and broad-leaf weeds.” for “1).”

[8] = system: Setaria viridis; test: Herbicidal action, monocotyledonous weeds, Setaria viridis (Table 2c); conditions: applied at 1-2 leaf stage, scoring 28 days after application
Description: as §1
as §3, with “Three weeks after sowing, the test plants are treated in the three-leaf stage with the compositions according to the invention.” left out, “1). The compositions according to the invention also have good herbicidal post-emergence action against a broad spectrum of economically important weed grasses and broad-leaf weeds.” for “1).”

CP(=O)(O)CCC(N)C(=O)O (centres unmarked) [Glufosinate-ammonium (A2a), glufosinate-ammonium]
Herbicidal action [%] on Digitaria sanguinalis ([1]; dose 450 g AS/ha): 15%

COCc1cnc(C2=NC(C)(C(C)C)C(=O)N2)c(C(=O)O)c1 (centres unmarked) [Imazamox (C18), imazamox]
Herbicidal action [%] Bidens pinata ([2]; dose 0.5 g AS/ha): 0% | Herbicidal action [%] Bidens pinata ([2]; dose 0.5 g AS/ha, listed as imazamox (C18)): no herbicidal action

CC(C)N.O=C(O)CNCP(=O)(O)O [Glyphosate-isopropylammonium (A1b), glyphosate-isopropylammonium]
Herbicidal action [%] Cirsium Arvense ([3]; dose 675 g AS/ha): 25% | Herbicidal action [%] Abutilon teophrastis ([4]; dose 100 g AS/ha): 10% | Herbicidal action [%] Euphorbia heterophylla ([5]; dose 100 g AS/ha): 10% | Herbicidal action [%] Xanthium strumarium ([6]; dose 100 g AS/ha): 10% | Herbicidal action [%] Setaria faberii ([7]; dose 100 g AS/ha): 10% | Herbicidal action [%] Setaria viridis ([8]; dose 100 g AS/ha): 20% | Herbicidal action [%] Bidens pinata ([2]; dose 100 g AS/ha): 10%

CC(C)N(C)S(=O)(=O)NC(=O)c1cc(-n2c(=O)cc(C(F)(F)F)n(C)c2=O)c(F)cc1Cl [Hydrate of the compound of the formula (I) = (Ba)] [2-chloro-5-[3,6-dihydro-3-methyl-2,6-dioxo-4-(trifluoromethyl)-1-(2H)-pyrimidinyl]-4-fluoro-N-[[methyl-(1-methylethyl)amino]sulfonyl]benzamide]
Herbicidal action [%] on Digitaria sanguinalis ([1]; dose 25 g AS/ha): 0% | Herbicidal action [%] Cirsium Arvense ([3]; dose 25 g AS/ha): 45% | Herbicidal action [%] Abutilon teophrastis ([4]; dose 6.25 g AS/ha): 75% | Herbicidal action [%] Euphorbia heterophylla ([5]; dose 6.25 g AS/ha): 30% | Herbicidal action [%] Xanthium strumarium ([6]; dose 6.25 g AS/ha): 30% | Herbicidal action [%] Setaria faberii ([7]; dose 6.25 g AS/ha): 30% | Herbicidal action [%] Setaria viridis ([8]; dose 6.25 g AS/ha): 25% | Herbicidal action [%] Bidens pinata ([2]; dose 6.25 g AS/ha): 40%

CC(C)N(C)S(=O)(=O)NC(=O)c1cc(-n2c(=O)cc(C(F)(F)F)n(C)c2=O)c(F)cc1Cl [Compound of the formula (I) (amorphous), 2-chloro-5-[3,6-dihydro-3-methyl-2,6-dioxo-4-(trifluoromethyl)-1-(2H)-pyrimidinyl]-4-fluoro-N-[[methyl-(1-methylethyl)amino]sulfonyl]benzamide]
Herbicidal action [%] on Digitaria sanguinalis ([1]; dose 25 g AS/ha): 0% | Herbicidal action [%] Cirsium Arvense ([3]; dose 25 g AS/ha): 55%
